Measurements as given in patent US20150258107A1, “METHODS AND COMPOSITIONS FOR TREATING DEPRESSION” (DemeRx, Inc., priority 2014, published 2015).

How the values were obtained:
[1] = Single dose toxicity in cynomolgus monkeys; format: in vivo, cynomolgus monkey; details: cynomolgus monkey, in vivo; oral gavage; read-out: single dose maximum tolerated dose (MTD)
Description: (§1) The objective of the study was to determine the toxicity and toxicokinetic profile of noribogaine following oral (gavage) administration to the cynomolgus monkey. Each dose was followed by a 7 day washout period. Dosing was staggered by 45 minutes. On study day 15, one animal was administered 80 mg/kg and the other animal was administered 160 mg/kg. The test article was administered as follows in Table 1:
(§2) Parameters monitored on the study included: mortality, clinical signs and body weights. Blood samples were collected for TK evaluation. […] The single dose maximum tolerated dose (MTD) was determined to be greater than 160 mg/kg based on the parameters monitored during the study.

cynomolgus monkey = assay: Single dose toxicity in cynomolgus monkeys; format: in vivo; details: oral gavage, doses up to and including 160 mg/kg
Description: as §1, §2

[2] = Human pharmacokinetic study, single oral tablet, fasting healthy volunteers (serum levels); format: in vivo; details: fasting; for Cmax: human, serum, oral
Description: In double blind studies, fasting healthy volunteers (6 per cohort) were treated once orally with a tablet of noribogaine HCl. In escalating cohorts, the volunteers received 3 mg, 10 mg, 30 mg or 60 mg noribogaine.

[3] = tested on: healthy, drug-free male volunteers; assay: Cold pressor test in healthy volunteers; format: in vivo, human; details: 3, 10, 30, 60 mg single oral dose; hand immersion duration and VAS pain scores
Description: Analgesic effect was assessed based on duration of hand immersion in ice water and on visual analog scale (VAS) pain scores upon hand removal from the water bath.
Safety and tolerability of noribogaine were tested in the group of volunteers from Example 9. […] Safety evaluations included clinical monitoring, recording of adverse events (AEs), safety laboratory tests, vital signs, ECG telemetry from −2 h to 6 h after dosing, and 12-lead electrocardiograms (ECGs) up to 216 hours post-dosing.

[4] = tested on: opioid-dependent participants; assay: Treatment emergent adverse events in opioid-dependent participants; format: in vivo, human
Description: The efficacy of noribogaine in humans was evaluated in opioid-dependent participants in a randomized, placebo-controlled, double-blind trial. […] See U.S. application Ser. No. 14/214,157, filed Mar. 14, 2014 and Ser. No. 14/346,655, filed Mar. 21, 2014, which are incorporated herein by reference in their entireties.
(§3) Three cohorts of nine (9) subjects (6 administered noribogaine and 3 administered placebo in each cohort) were evaluated for tolerability, pharmacokinetics, and efficacy. Cohort 1 received a single dose of 60 mg noribogaine or placebo. Cohort 2 received a single dose of 120 mg noribogaine or placebo. Cohort 3 received a single dose of 180 mg noribogaine or placebo. […] Headaches were frequent in the placebo and 60 mg noribogaine treatment groups, but were attenuated in the 120 mg and 180 mg dose groups.

[5] = Pharmacokinetics in opioid-dependent patients (Phase IB study); format: in vivo, human; details: 60, 120, 180 mg
Description: as §3

[6] = tested on: opioid-dependent participants; assay: QT interval in opioid-dependent participants; format: in vivo, human; details: 60, 120, 180 mg, first 24 hours post administration
Description: Patients' QT intervals were evaluated at regular time points throughout the study.

[7] = Pharmacokinetics of noribogaine in healthy male volunteers (plasma and urine, LCMSMS); details: for CL/F / AUC0-216 / AUC0-∞ / Cmax / Tmax / T½: mean (SD); for AUC0-216 / AUC0-∞ / Cmax / Tmax / T½: plasma

## CC[C@H]1CC2C[C@H]3c4[nH]c5ccc(O)cc5c4CCN(C2)C13 [noribogaine]
[1]
  MTD: > 160 mg/kg
Cynomolgus monkey
  Mortality or treatment related clinical signs: No mortality or treatment related clinical signs were noted
[2]; single dose of 3 mg
  Cmax: 5.2 ng/mL
  mean AUC/24 hr: 3.1 ng/mL
[2]; single dose of 10 mg
  Cmax: 14.5 ng/mL
  mean AUC/24 hr: 10.6 ng/mL
[2]; single dose of 30 mg
  Cmax: 55.9 ng/mL
  mean AUC/24: 29.2 ng/mL
[2]; single dose of 60 mg
  Cmax: 116 ng/mL
  mean AUC/24: 61 ng/mL
[3]
  Analgesic effect in the cold pressor test: no analgesic effect
[4]; 60 mg (N = 6)
  TEAE: Catheter Site Infection: 0
  TEAE: Catheter Site Pain: 0
  TEAE: Catheter Site Related Reaction: 0
  TEAE: Cellulitis: 0
  TEAE: Diarrhoea: 0
  TEAE: Dry Mouth: 0
  TEAE: Ear and Labyrinth Disorders: 0
  TEAE: Epistaxis: 0
  TEAE: Euphoric Mood: 0
  TEAE: General Disorders and Administration Site Conditions: 0
  TEAE: Hyperaesthesia: 0
  TEAE: Infections and Infestations: 0
  TEAE: Limb Discomfort: 0
  TEAE: Malaise: 0
  TEAE: Nausea: 0
  TEAE: Oropharyngeal Pain: 0
  TEAE: Pseudoparalysis: 0
  TEAE: Respiratory, Thoracic and Mediastinal Disorders: 0
  TEAE: Rhinorrhoea: 0
  TEAE: Skin Discomfort: 0
  TEAE: Skin Irritation: 0
  TEAE: Skin and Subcutaneous Tissue Disorders: 0
  TEAE: Somnoience: 0
  TEAE: Tinnitus: 0
  TEAE: Tremor: 0
  TEAE: Urinary Tract Infection: 0
  TEAE: Vomiting: 0
[4]; 120 mg (N = 6)
  TEAE: Back Pain: 0
  TEAE: Catheter Site Infection: 0
  TEAE: Catheter Site Related Reaction: 0
  TEAE: Depressed Mood: 0
  TEAE: Dry Eye: 0
  TEAE: Dyspepsia: 0
  TEAE: Euphoric Mood: 0
  TEAE: Limb Discomfort: 0
  TEAE: Malaise: 0
  TEAE: Musculoskeletal and Connective Tissue Disorders: 0
  TEAE: Psychiatric Disorders: 0
  TEAE: Somnoience: 0
  TEAE: Urinary Tract Infection: 0
[4]; 180 mg (N = 6)
  TEAE: Catheter Site Infection: 0
  TEAE: Catheter Site Pain: 0
  TEAE: Depressed Mood: 0
  TEAE: Diarrhoea: 0
  TEAE: Dry Eye: 0
  TEAE: Dyspepsia: 0
  TEAE: Ear and Labyrinth Disorders: 0
  TEAE: Epistaxis: 0
  TEAE: Euphoric Mood: 0
  TEAE: Hyperaesthesia: 0
  TEAE: Malaise: 0
  TEAE: Pseudoparalysis: 0
  TEAE: Psychiatric Disorders: 0
  TEAE: Respiratory, Thoracic and Mediastinal Disorders: 0
  TEAE: Rhinorrhoea: 0
  TEAE: Skin Discomfort: 0
  TEAE: Skin Irritation: 0
  TEAE: Skin and Subcutaneous Tissue Disorders: 0
  TEAE: Somnoience: 0
  TEAE: Tinnitus: 0
  TEAE: Tremor: 0
[4]; single dose 60, 120 or 180 mg
  Adverse effects incl. hallucinatory effects: Few adverse effects of noribogaine were observed in any of the participants, including no hallucinatory effects
[5]
  Dose dependence of maximum serum concentration (Cmax): increased in a dose-dependent manner
[6]
  QT interval prolongation (ΔQTc1): dose-dependent increase in QT interval prolongation
[7]; 3 mg (n = 6)
  CL/F: 41.4 (7.0) L/h
  AUC0-216: 72.2 (13.2) ng · hr/ml
  AUC0-∞: 74.2 (13.1) ng · hr/ml
  Cmax: 5.2 (1.4) ng/ml
  Tmax: 1.9 (0.6) hr
  T½: 40.9 (8.7) hr
[7]; 10 mg (n = 6)
  CL/F: 42.3 (12.0) L/h
  AUC0-216: 251.4 (78.5) ng · hr/ml
  AUC0-∞: 254.5 (78.9) ng · hr/ml
  Cmax: 14.5 (2.1) ng/ml
  Tmax: 2.9 (1.8) hr
  T½: 49.2 (11.5) hr
[7]; 30 mg (n = 6)
  CL/F: 46.9 (16.4) L/h
  AUC0-216: 677.6 (221.1) ng · hr/ml
  AUC0-∞: 700.4 (223.3) ng · hr/ml
  Cmax: 55.9 (14.8) ng/ml
  Tmax: 1.8 (0.6) hr
  T½: 27.6 (7.0)) hr
[7]; 60 mg (n = 6)
  CL/F: 34.0 (11.4) L/h
  AUC0-216: 1935.4 (725.4) ng · hr/ml
  AUC0-∞: 1962.2 (726.5) ng · hr/ml
  Cmax: 116.0 (22.5) ng/ml
  Tmax: 2.4 (0.6) hr
  T½: 29.1 (9.3) hr
[7]; 3-60 mg
  Dose proportionality of Cmax and AUC: Both Cmax and AUC increased linearly with dose
[7]; across dose groups
  Mean half-life estimates: 28 to 50 h
  Volume of distribution: 1417 to 3086 L
[7]; across dose groups 3-60 mg
  Time of peak concentrations after oral dosing: 2 to 3 h
